Where a SMILES comes first, the peptide text is derived from it.

Usually IC50 stands for the concentration needed to halve the response being measured. High values mean lower potency, low ones higher potency.

In the first experiment the test system is C. albicans CAI4 (IFM 61937). The following applies: Table 2; synthetic partial peptides against C. albicans, OD650; tested up to 25 μM. The method, then:
Seven microbial strains were used for OsAFP1 antimicrobial activity testing. P. gingivalis ATCC 33277 cells were cultured in modified Gifu anaerobic medium (GAM) (Nissui, Tokyo, Japan) in an anaerobic jar (Mitsubishi Gas Chemical, Tokyo, Japan) in the presence of a deoxygenating regent (AnaeroPack, Mitsubishi Gas Chemical) for 48 h at 37 °C. E. coli K-12 NBRC3301, S. mutans JCM 5705, S. aureus NBRC 12732, and P. acnes JCM 6473 cells were cultured in Luria-Bertani (LB) broth, brain-heart infusion broth (Nissui), trypticase soy broth (BD Biosciences, Franklin Lakes, NJ, USA), and GAM broth (Nissui), respectively, under facultative anaerobic conditions for 4–24 h at 37 °C. C. albicans CAI4 (IFM 61937) cells were cultured in 0.5 × potato dextrose broth (PDB) supplemented with 25 μg/ml of uridine under facultative anaerobic conditions for 14 h at 30 °C. S. cerevisiae BY4742 and S288C cells were cultured in 0.5 × PDB supplemented with 30 μg/ml of uridine, histidine, and lysine and 60 μg/ml of leucine under facultative anaerobic conditions for 14 h at 27 °C. These microbial strains were purchased from the American Type Culture Collection (Manassas, VA, USA), National Institute of Technology and Evaluation (Tokyo, Japan), RIKEN BioResource Center (Tsukuba, Japan), Medical Mycology Research Center (Chiba, Japan), and GE Healthcare (Little Chalfont, UK).
Antifungal assays to determine the MIC of OsAFP1 were performed as follows. Fungal cells (1 × 10^5 cells) were suspended in 100 μl of the appropriate medium containing 0–32 μM OsAFP1 in 96-well Costar cell culture plates. After incubation, OD650 was measured using a plate reader. […] In those cases, the cultures were plated on agar plates (0.5 × PDB), and the peptide concentration at which viable cell numbers were 1% or less than that in the control culture was considered the MIC. GraphPad Prism version 6.00 for Macintosh (GraphPad Software, La Jolla, CA, USA) was used to calculate IC50 values. Experiments were independently repeated at least three times. Detailed growth conditions for each fungus are provided in the “Microorganisms and culture conditions” section above.
Molecule `CSCC[C@H](NC(=O)CNC(=O)[C@H](CCCCN)NC(=O)[C@H](Cc1ccccc1)NC(=O)[C@H](CCCNC(=N)N)NC(=O)[C@H](Cc1c[nH]cn1)NC(=O)[C@@H](N)CO)C(=O)N[C@@H](CS)C(=O)N[C@H](C(=O)N[C@@H](CO)C(=O)O)C(C)C` [compound 2] (H-SHRFKGMCVS-OH) came in with an IC50 of 19 µM. In other words, the double-digit micromolar range.

On to `CC(C)[C@H](N)C(=O)N[C@@H](CO)C(=O)N[C@@H](CO)C(=O)N[C@@H](CC(N)=O)C(=O)N[C@@H](CC(N)=O)C(=O)N[C@@H](CS)C(=O)N[C@@H](C)C(=O)N[C@@H](CC(N)=O)C(=O)N[C@H](C(=O)O)C(C)C` [compound 3] (H-VSSNNCANV-OH), for which the IC50 was over 25 µM.

`C[C@@H](O)[C@H](NC(=O)[C@@H](N)CCCNC(=N)N)C(=O)N[C@@H](CCC(=O)O)C(=O)N[C@@H](CO)C(=O)N[C@@H](Cc1ccccc1)C(=O)N1CCC[C@H]1C(=O)N[C@@H](CC(=O)O)C(=O)NCC(=O)N[C@@H](CCC(=O)O)C(=O)O` [compound 5] (H-RTESFPDGE-OH) yielded a half-maximal inhibitory concentration (IC50) of over 25 µM.

`NCCCC[C@H](NC(=O)[C@H](CS)NC(=O)[C@H](CCC(=O)O)NC(=O)CNC(=O)[C@H](CC(=O)O)NC(=O)[C@@H]1CCCN1C(=O)[C@@H](N)Cc1ccccc1)C(=O)N[C@@H](CO)C(=O)N[C@@H](Cc1c[nH]cn1)C(=O)NCC(=O)O` [compound 6] (H-FPDGECKSHG-OH) came in with a concentration for half-maximal inhibition (IC50) of over 25 µM.

Turning to `CC(C)C[C@H](NC(=O)[C@H](CS)NC(=O)[C@H](Cc1c[nH]cn1)NC(=O)[C@@H](N)CCCNC(=N)N)C(=O)N[C@@H](CO)C(=O)N[C@@H](CCC(N)=O)C(=O)N[C@@H](CO)C(=O)N[C@@H](Cc1c[nH]cn1)C(=O)N[C@@H](CCCNC(=N)N)C(=O)N[C@@H](Cc1ccccc1)C(=O)O` [peptide 1] (H-RHCLSQSHRF-OH), the 50% inhibitory concentration (IC50) is 6 µM.

`CC(C)C[C@H](NC(=O)CNC(=O)[C@H](Cc1c[nH]cn1)NC(=O)[C@H](CO)NC(=O)[C@@H](N)CCCCN)C(=O)N[C@@H](CCC(=O)O)C(=O)N[C@@H](CCCNC(=N)N)C(=O)N[C@@H](CCCCN)C(=O)N[C@@H](CS)C(=O)N[C@@H](Cc1ccccc1)C(=O)O` [peptide 7] (H-KSHGLERKCF-OH): the half-maximal inhibitory concentration (IC50) worked out at 10 µM. Compared with the last molecule, the IC50 is about 1.7-fold higher.

The next experiment has as its system Candida species. The settings on record: existing antifungal drugs; cited from earlier work. The method, then:
In the present study, functional analyses of the antifungal activity of the rice-derived defensin OsAFP1 were performed. […] Since MIC values of the existing antifungal drugs, such as fluconazole, amphotericin B, and caspofungin, are in the 0.01–1 μM range[48], further engineering to enhance its function may be required before OsAFP1 can be used as a drug. On the other hand, OsAFP1 was extremely stable upon heat and serum treatments and exerted its antifungal activity by inducing apop ...
On to `C[C@@H]1[C@H](O)[C@@H](C)/C=C/C=C/C=C/C=C/C=C/C=C/C=C/[C@H](O[C@@H]2O[C@H](C)[C@@H](O)[C@H](N)[C@@H]2O)C[C@@H]2O[C@](O)(C[C@@H](O)C[C@@H](O)[C@H](O)CC[C@@H](O)C[C@@H](O)CC(=O)O[C@H]1C)C[C@H](O)[C@H]2C(=O)O` [amphotericin B], for which the MIC values was 0.01 to 1 µM.

As to `OC(Cn1cncn1)(Cn1cncn1)c1ccc(F)cc1F` [fluconazole], the MIC values is 0.01 to 1 µM.

caspofungin: the MIC values was 0.01 to 1 µM.

Source of the values: paper PMC6065317, “Rice Defensin OsAFP1 is a New Drug Candidate against Human Pathogenic Fungi” (Scientific Reports, 2018).
